Assay results as given in ChEMBL document CHEMBL1139907, “Further studies on hepatitis C virus NS5B RNA-dependent RNA polymerase inhibitors toward improved replicon cell activities: benzimidazole and structurally related compounds bearing the 2-morpholinophenyl moiety” (Bioorg Med Chem Lett, 2007).

What was measured:
[1] = Cytotoxicity against Huh-5-2 cells; assay type: cell-based; settings: human
[2] = Inhibition of HCV NS5B polymerase; parameters: species or system Hepacivirus hominis
Hepacivirus hominis = assay: Ratio of EC50 of HCV to IC50 for HCV NS5B polymerase
Hepatitis C virus = assay: Antiviral activity against HCV in Huh-5-2 cells by replicon assay; assay type: functional, organism-based, Hepacivirus hominis

| Compound | CC50 [1] | IC50 [2] | Ratio (Hepacivirus hominis) | EC50 (Hepatitis C virus) |
| --- | --- | --- | --- | --- |
| CN1CCN(c2ccc(N3CCCC3=O)cc2COc2ccc(-c3nc4cc(C(=O)O)ccc4n3C3CCCCC3)c(F)c2)CC1 | > 20 µM | 0.13 µM | 8.5 | 1.1 µM |
| O=C(O)c1ccc2c(c1)nc(-c1ccc(OCc3cc(N4CCCC4=O)ccc3-c3ccc(Cl)cc3)cc1F)n2C1CCCCC1 | > 20 µM |  | 19 |  |
| O=C(O)c1ccc2c(c1)nc(-c1ccc(OCc3cc(N4CCCS4(=O)=O)ccc3N3CCOCC3)cc1F)n2C1CCCCC1 | > 20 µM | 0.071 µM | 7.7 | 0.55 µM |
| CC(=O)N(c1ccc(N2CCOCC2)c(COc2ccc(-c3nc4cc(C(=O)O)ccc4n3C3CCCCC3)c(F)c2)c1)C(C)C | > 20 µM | 0.042 µM | 6.4 | 0.27 µM |
| O=C(O)c1ccc2c(C3CCCCC3)c3n(c2c1)CCOc1cc(OCc2cc(N4CCCC4=O)ccc2-c2ccc(Cl)cc2)ccc1-3 | > 20 µM | 0.019 µM | 3.1 | 0.06 µM |
| O=C(O)c1ccc2c(c1)nc(-c1ccc(OCc3cc(N4CCCC4=O)ccc3N3CCCCC3)cc1F)n2C1CCCCC1 | > 20 µM | 0.15 µM | 5.3 | 0.8 µM |
| O=C(O)c1ccc2c(c1)nc(-c1ccc(OCc3cc(N4CCCC4=O)ccc3N3CCOCC3)cc1F)n2C1CCCCC1 | > 20 µM | 0.066 µM | 4.7 | 0.31 µM |
| CC(=O)N(C)c1ccc(N2CCOCC2)c(COc2ccc(-c3nc4cc(C(=O)O)ccc4n3C3CCCCC3)c(F)c2)c1 | > 20 µM | 0.051 µM | 7.3 | 0.37 µM |
| O=C(O)c1ccc2c(c1)nc(-c1ccc(OCc3cc(N4CCCC4=O)ccc3N3CCC(O)CC3)cc1F)n2C1CCCCC1 | > 20 µM | 0.15 µM | 9.3 | 1.4 µM |
| O=C(O)c1ccc2c(c1)nc(-c1ccc(OCc3cc(N4CCCC4=O)ccc3Oc3ccc(Cl)cc3)cc1F)n2C1CCCCC1 | > 20 µM | 0.23 µM | 13 | 3.1 µM |
| COCC(=O)N(C)c1ccc(N2CCOCC2)c(COc2ccc(-c3nc4cc(C(=O)O)ccc4n3C3CCCCC3)c(F)c2)c1 | > 20 µM | 0.099 µM | 12 | 1.2 µM |
| CN(C)C(=O)c1ccc(N2CCOCC2)c(COc2ccc(-c3nc4cc(C(=O)O)ccc4n3C3CCCCC3)c(F)c2)c1 | > 20 µM | 0.068 µM | 6.5 | 0.44 µM |
| O=C(O)c1ccc2c(c1)nc(-c1ccc(OCc3cc(Cl)ccc3N3CCOCC3)cc1F)n2C1CCCCC1 | > 20 µM | 0.1 µM | 12 | 1.2 µM |
| CC(=O)Nc1ccc(N2CCOCC2)c(COc2ccc(-c3nc4cc(C(=O)O)ccc4n3C3CCCCC3)c(F)c2)c1 | > 20 µM | 0.07 µM | 13 | 0.91 µM |
| O=C(O)c1ccc2c(c1)nc(-c1ccc(OCc3cc(N4CCCC4=O)ccc3N3CCOCC3=O)cc1F)n2C1CCCCC1 | > 20 µM | 1 µM | > 30 | > 30 µM |
| CC(C)NC(=O)c1ccc(N2CCOCC2)c(COc2ccc(-c3nc4cc(C(=O)O)ccc4n3C3CCCCC3)c(F)c2)c1 | > 20 µM | 0.048 µM | 7.9 | 0.38 µM |
| Cn1c(-c2ccc(OCc3cc(N4CCCC4=O)ccc3N3CCOCC3)cc2)c(C2CCCCC2)c2ccc(C(=O)O)cc21 | > 20 µM | 0.0072 µM | 7.2 | 0.052 µM |
| O=C(O)c1ccc2c(c1)cc(-c1ccc(OCc3cc(N4CCCC4=O)ccc3N3CCOCC3)cc1)n2C1CCCCC1 | > 20 µM | 0.03 µM | 7 | 0.21 µM |
| O=C(O)c1ccc2c(c1)nc(-c1ccc(OCc3ccccc3N3CCOCC3)cc1F)n2C1CCCCC1 | > 20 µM | 0.13 µM | 7.7 | 1 µM |
| CC(=O)N1CCN(c2ccc(N3CCCC3=O)cc2COc2ccc(-c3nc4cc(C(=O)O)ccc4n3C3CCCCC3)c(F)c2)CC1 | > 20 µM | 0.11 µM | 8.6 | 0.95 µM |
| COCCN(C)c1ccc(N2CCCC2=O)cc1COc1ccc(-c2nc3cc(C(=O)O)ccc3n2C2CCCCC2)c(F)c1 | > 20 µM | 0.26 µM | 5 | 1.3 µM |
| O=C(O)c1ccc2c(c1)nc(-c1ccc(OCc3cc(N4CCCC4=O)ccc3N3CCC(C(=O)O)CC3)cc1F)n2C1CCCCC1 | > 20 µM | 0.18 µM | 19 | 3.5 µM |
| O=C(O)c1ccc2c(c1)nc(-c1ccc(OCc3cc(N4CCCCC4=O)ccc3N3CCOCC3)cc1F)n2C1CCCCC1 | > 20 µM | 0.09 µM | 6.4 | 0.58 µM |
| COc1ccc(N2CCCC2=O)cc1COc1ccc(-c2nc3cc(C(=O)O)ccc3n2C2CCCCC2)c(F)c1 | > 20 µM | 0.41 µM | 3.4 | 1.4 µM |
| O=C(O)c1ccc2c(C3CCCCC3)c3n(c2c1)CCOc1cc(OCc2cc(N4CCCC4=O)ccc2N2CCOCC2)ccc1-3 | > 20 µM | 0.0072 µM | 1.1 | 0.0076 µM |
